Test results as given in US6838416B2, “Herbicidal 5-benzyloxymethyl-1,2-isoxazoline derivatives” (Korea Research Institute of Chemical Technology, priority 2000, dated 2005).

Columns and labels:
[1] = test system: ECHOR (seed); experiment: Assay for herbicidal activity, paddy pots: ECHOR; format: in vivo, Echinochloa crus-galli var. oryzicola; conditions: three weeks after application, 0 untreated control, 100 complete kill
From the text: (§1) To evaluate herbicidal activity against the paddy weeds in the paddy rice (ORYSA: Oryza sativa L.), the herbicidal activity of the compounds of the invention was compared to that of the compound No.109 (compound A) disclosed in U.S. Pat. […] The paddy weeds tested were ECHOR (Echinochloa crus-galli var. oryzicola), SCPJU (Scirpus juncoides ROXB), MOOVA (Monochoria vaginalis […] (Cyperus serotinus ROTTB), and SAGPY (Sagittaria pygmaea MTQ). The vessels employed were plastic pots having an area of 140 cm^2 and filled with a sandy loam soil containing 1.2% organic matter (pH 6).

[2] = test system: ORYSA seed; experiment: Assay for herbicidal activity on the 2-leaf stage weeds and rice plants: rice seed; format: in vivo, Oryza sativa L.; conditions: applied two days after seeding pregerminated seeds, 0 untreated control, 100 complete kill
Protocol: (§2) The vessels employed were plastic pots having an area of 140 cm^2 and filled with a sandy loam soil containing 1.2% organic matter (pH 6). Pregerminated seed of rice (ORYSA: Oryza sativa L.) and seed of ECHOR (Echinochloa crus-galli var oryzicola) were seeded on the soil surface, respectively. The pots were then watered at the depth of 3 cm just after seeding.
(§3) Seven days after seeding, the pregerminated seeds of rice were seeded on the soil face whilst the early seeded rice in the same pots and barnyard grass (ECHOR) grew up to the 2-leaf stage. Two days after, a solution of the compound of Example 8 and Tween-20 as a non-ionic emulsifier in 50% acetone, was diluted with water to a concentration of 0.016, 0.063, 0.25, 1 and 4.0 kg/ha, respectively and applied evenly to the test pots.
(§4) Three weeks after starting from the beginning, the application of the herbicide, the herbicidal activity on paddy weeds and the phytotoxicity to the paddy rice plant were visually rated by a percentage grading wherein 0 indicates as an untreated control and 100 indicates complete kill. The results are shown in the following

[3] = test system: CYPSE (tuber); experiment: Assay for herbicidal activity, paddy pots: CYPSE; format: in vivo, Cyperus serotinus ROTTB; conditions: three weeks after application, 0 untreated control, 100 complete kill
From the text: as §1

[4] = test system: MOOVA (seed); experiment: Assay for herbicidal activity, paddy pots: MOOVA; format: in vivo, Monochoria vaginalis PRESL; conditions: three weeks after application, 0 untreated control, 100 complete kill
From the text: as §1

[5] = test system: SAGPY (tuber); experiment: Assay for herbicidal activity, paddy pots: SAGPY; format: in vivo, Sagittaria pygmaea MTQ; conditions: three weeks after application, 0 untreated control, 100 complete kill
From the text: as §1

[6] = test system: ECHOR 2-leaf stage; experiment: Assay for herbicidal activity on the 2-leaf stage weeds and rice plants: ECHOR 2-leaf stage; format: in vivo, Echinochloa crus-galli var oryzicola; conditions: applied at 2-leaf stage, 0 untreated control, 100 complete kill
Protocol: as §2, §3, §4

[7] = test system: SCPJU (seed); experiment: Assay for herbicidal activity, paddy pots: SCPJU; format: in vivo, Scirpus juncoides ROXB; conditions: three weeks after application, 0 untreated control, 100 complete kill
From the text: as §1

[8] = test system: ORYSA 2-leaf stage; experiment: Assay for herbicidal activity on the 2-leaf stage weeds and rice plants: rice 2-leaf stage; format: in vivo, Oryza sativa L.; conditions: applied at 2-leaf stage, 0 untreated control, 100 complete kill
Protocol: as §2, §3, §4

[9] = test system: ORYSA (seed); experiment: Assay for herbicidal activity, paddy pots: phytotoxicity to seeded (pregerminated) rice; format: in vivo, Oryza sativa L.; conditions: in vivo
From the text: as §1

[10] = test system: ORYSA (3-leaf stage); experiment: Assay for herbicidal activity, paddy pots: phytotoxicity to transplanted rice seedlings; format: in vivo, Oryza sativa L.; conditions: in vivo
From the text: as §1

Compound | ECHOR (seed) herbicidal activity, visual percentage grading ([1]; 0.016 kg/ha) [%] | ECHOR (seed) herbicidal activity, visual percentage grading ([1]; 0.063 kg/ha) [%] | ECHOR (seed) herbicidal activity, visual percentage grading ([1]; 0.250 kg/ha) [%] | ECHOR (seed) herbicidal activity, visual percentage grading ([1]; 1.000 kg/ha) [%] | ECHOR (seed) herbicidal activity, visual percentage grading ([1]; 4.000 kg/ha) [%] | CYPSE (tuber) herbicidal activity, visual percentage grading ([3]; 0.016 kg/ha) [%] | CYPSE (tuber) herbicidal activity, visual percentage grading ([3]; 0.063 kg/ha) [%] | CYPSE (tuber) herbicidal activity, visual percentage grading ([3]; 0.250 kg/ha) [%] | CYPSE (tuber) herbicidal activity, visual percentage grading ([3]; 1.000 kg/ha) [%] | CYPSE (tuber) herbicidal activity, visual percentage grading ([3]; 4.000 kg/ha) [%] | MOOVA (seed) herbicidal activity, visual percentage grading ([4]; 0.016 kg/ha) [%] | MOOVA (seed) herbicidal activity, visual percentage grading ([4]; 0.063 kg/ha) [%] | MOOVA (seed) herbicidal activity, visual percentage grading ([4]; 0.250 kg/ha) [%] | MOOVA (seed) herbicidal activity, visual percentage grading ([4]; 1.000 kg/ha) [%] | MOOVA (seed) herbicidal activity, visual percentage grading ([4]; 4.000 kg/ha) [%] | SAGPY (tuber) herbicidal activity, visual percentage grading ([5]; 0.016 kg/ha) [%] | SAGPY (tuber) herbicidal activity, visual percentage grading ([5]; 0.063 kg/ha) [%] | SAGPY (tuber) herbicidal activity, visual percentage grading ([5]; 0.250 kg/ha) [%] | SAGPY (tuber) herbicidal activity, visual percentage grading ([5]; 1.000 kg/ha) [%] | SAGPY (tuber) herbicidal activity, visual percentage grading ([5]; 4.000 kg/ha) [%] | also measured
Cc1ccsc1C1=NOC(C)(COCc2c(F)cccc2F)C1 (stereo not shown) [EXAMPLE 8, 5-(2,6-difluorobenzyl)oxymethyl-5-methyl-3-(4-methylthiophene-5-yl)-1,2-isoxazoline] | 50 | 100 | 100 | 100 | 100 | 0 | 50 | 90 | 100 | 100 | 50 | 90 | 90 | 100 | 100 | 0 | 0 | 0 | 50 | 80 | ORYSA (seed) phytotoxicity, visual percentage grading ([2]; 0.016 kg/ha): 0%; ORYSA (seed) phytotoxicity, visual percentage grading ([2]; 0.063 kg/ha): 20%; ORYSA (seed) phytotoxicity, visual percentage grading ([2]; 0.250 kg/ha): 55%; ORYSA (seed) phytotoxicity, visual percentage grading ([2]; 1.000 kg/ha): 80%; ORYSA (seed) phytotoxicity, visual percentage grading ([2]; 4.000 kg/ha): 95%; ECHOR 2-leaf stage herbicidal activity, visual percentage grading ([6]; 0.016 kg/ha): 45%; ECHOR 2-leaf stage herbicidal activity, visual percentage grading ([6]; 0.063 kg/ha): 95%; ECHOR 2-leaf stage herbicidal activity, visual percentage grading ([6]; 0.250 kg/ha): 100%; ECHOR 2-leaf stage herbicidal activity, visual percentage grading ([6]; 1.000 kg/ha): 100%; ECHOR 2-leaf stage herbicidal activity, visual percentage grading ([6]; 4.000 kg/ha): 100%; SCPJU (seed) herbicidal activity, visual percentage grading ([7]; 0.016 kg/ha): 0%; SCPJU (seed) herbicidal activity, visual percentage grading ([7]; 0.063 kg/ha): 10%; SCPJU (seed) herbicidal activity, visual percentage grading ([7]; 0.250 kg/ha): 10%; SCPJU (seed) herbicidal activity, visual percentage grading ([7]; 1.000 kg/ha): 40%; SCPJU (seed) herbicidal activity, visual percentage grading ([7]; 4.000 kg/ha): 100%; ORYSA 2-leaf stage phytotoxicity, visual percentage grading ([8]; 0.016 kg/ha): 0%; ORYSA 2-leaf stage phytotoxicity, visual percentage grading ([8]; 0.063 kg/ha): 0%; ORYSA 2-leaf stage phytotoxicity, visual percentage grading ([8]; 0.250 kg/ha): 0%; ORYSA 2-leaf stage phytotoxicity, visual percentage grading ([8]; 1.000 kg/ha): 20%; ORYSA 2-leaf stage phytotoxicity, visual percentage grading ([8]; 4.000 kg/ha): 65%
CC1(COCc2cccc(F)c2)CC(c2sccc2Br)=NO1 (stereo not shown) [EXAMPLE 18, 5-(3-fluorobenzyl)oxymethyl-5-methyl-3-(4-bromothiophene-5-yl)-1,2-isoxazoline] | 0 | 60 | 100 | 100 | 100 | 0 | 40 | 70 | 100 | 100 | 0 | 100 | 100 | 100 | 100 | 0 | 0 | 0 | 0 | 20 | ORYSA (seed) phytotoxicity, visual percentage grading [9]: 100%; ORYSA (3-leaf stage) phytotoxicity, visual percentage grading [10]: 0%; SCPJU (seed) herbicidal activity, visual percentage grading ([7]; 0.016 kg/ha): 0%; SCPJU (seed) herbicidal activity, visual percentage grading ([7]; 0.063 kg/ha): 10%; SCPJU (seed) herbicidal activity, visual percentage grading ([7]; 0.250 kg/ha): 100%; SCPJU (seed) herbicidal activity, visual percentage grading ([7]; 1.000 kg/ha): 100%; SCPJU (seed) herbicidal activity, visual percentage grading ([7]; 4.000 kg/ha): 100%
